According to patent EP0497609B1, “Pyrimido-benzothiazine derivatives for the treatment of inflammation, allergy and cardiovascular disease” (PFIZER INC., priority 1991, dated 1992):

What was measured:
Type in all cases: in vivo
mouse = assay: PAF (Platelet Activating Factor) lethality assay; settings: for PAF lethality survival (%): Dose 50 mg/kg
Source text: (§1) The compounds of formulae (I) and (II) of this invention can be shown to inhibit lipoxygenase according to various testing methods. Such methods include the following: RPC (Rat Peritoneal Cavity resident cells) assay according to methods described in Jap. J. Inflammation 7:145-150 (1987), "Synthesis of leukotrienes by peritoneal macrophages"; PAF (Platelet Activating Factor) lethality assay according to methods described in Prostaglandisis 30(4):545-551 (1985); and y-RFE (yeast induced Rat Foot Edema) assay according to methods described in Biochem. Pharmacol. 36:547 (1987).
In the PAF lethality assay, the compound of Example 5, as shown in the Table above, gave a high (69%) survival percentage. The term "survival percentage" herein means the inhibitory efficacy to shock death of the mouse through lipoxygenase metabolites activated by dosing with PAF.

male ICR mice = assay: Acute toxicity after oral administration; settings: 7 hours after oral administration at 600 mg/kg to male ICR mice
Experimental: Acute toxicity of the compound of Example 5 was investigated 7 hours after oral administration at 600 mg/kg to male ICR mice (Charles River Japan Inc., 5 weeks old, avg. body weight of 28 g).

rat foot = assay: y-RFE (yeast induced Rat Foot Edema) assay; settings: Dose 60 mg/kg; rat foot edema induced by yeast suspension
Source text: as §1
Furthermore, in the y-RFE assay, the compound of Example 5, as shown in the Table above, gave a high (69%) edema inhibitory percentage. The term "edema inhibitory percentage" herein means the inhibitory efficacy to the swelling of inflammatory edema of the rat foot induced by the injection of yeast suspension.

## O=c1[nH]c2c(c(=O)[nH]1)Nc1ccccc1S2 [Example 1, 1,5-Dihydro-2H-pyrimido[4,5-b][1,4]benzothiazine-2,4(3H)-dione]
mouse
  PAF lethality survival (%): 56%

## Cn1c(=O)[nH]c2c(c1=O)Nc1ccccc1S2 [Example 2, 1,5-Dihydro-3-methyl-2H-pyrimido[4,5-b][1,4]benzothiazine-2,4(3H)-dione]
mouse
  PAF lethality survival (%): 30%

## Cn1c(=O)nc2sc3ccccc3nc-2c1=O [Example 5, 3-Methyl-2H-pyrimido[4,5-b][1,4]benzothiazine-2,4(3H)-dione]
Male ICR mice
  Acute toxicity: did not show any acute toxic symptoms
Rat foot
  y-RFE edema inhibitory (%): 69%
mouse
  PAF lethality survival (%): 69%
mouse; Platelet, read-out: ED₅₀ value in the PAF lethality assay
  ED50: 51 mg/kg
